Laboratory results reported in patent US7420056B2, “Substituted bicyclic imidazo-3-ylamine compounds” (Gruenenthal GmbH, priority 2004, dated 2008).

biological target: mGluR5 receptor (Sus scrofa, UniProt I3LUI7); assay: Affinity for the mGluR5 receptor: inhibition of 3[H]-MPEP binding in pig brain homogenate; settings: 10 μM compound, 5 nM 3[H]-MPEP, read-out: mGluR5 receptor inhibition of ^3[H]-MPEP binding [10 μM] in % at a concentration of the example compounds of 10 μM
In short: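 Test compounds were screened at 10 μM for displacement of 5 nM [3H]-MPEP from pig brain homogenate (450 μg protein, pH 8.0 Hepes buffer) over 60 min at room temperature. After filtration, scintillation counting gave the read-out. 10 μM unlabelled MPEP set nonspecific binding.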

Sequence of mGluR5 receptor (I3LUI7 19-1212): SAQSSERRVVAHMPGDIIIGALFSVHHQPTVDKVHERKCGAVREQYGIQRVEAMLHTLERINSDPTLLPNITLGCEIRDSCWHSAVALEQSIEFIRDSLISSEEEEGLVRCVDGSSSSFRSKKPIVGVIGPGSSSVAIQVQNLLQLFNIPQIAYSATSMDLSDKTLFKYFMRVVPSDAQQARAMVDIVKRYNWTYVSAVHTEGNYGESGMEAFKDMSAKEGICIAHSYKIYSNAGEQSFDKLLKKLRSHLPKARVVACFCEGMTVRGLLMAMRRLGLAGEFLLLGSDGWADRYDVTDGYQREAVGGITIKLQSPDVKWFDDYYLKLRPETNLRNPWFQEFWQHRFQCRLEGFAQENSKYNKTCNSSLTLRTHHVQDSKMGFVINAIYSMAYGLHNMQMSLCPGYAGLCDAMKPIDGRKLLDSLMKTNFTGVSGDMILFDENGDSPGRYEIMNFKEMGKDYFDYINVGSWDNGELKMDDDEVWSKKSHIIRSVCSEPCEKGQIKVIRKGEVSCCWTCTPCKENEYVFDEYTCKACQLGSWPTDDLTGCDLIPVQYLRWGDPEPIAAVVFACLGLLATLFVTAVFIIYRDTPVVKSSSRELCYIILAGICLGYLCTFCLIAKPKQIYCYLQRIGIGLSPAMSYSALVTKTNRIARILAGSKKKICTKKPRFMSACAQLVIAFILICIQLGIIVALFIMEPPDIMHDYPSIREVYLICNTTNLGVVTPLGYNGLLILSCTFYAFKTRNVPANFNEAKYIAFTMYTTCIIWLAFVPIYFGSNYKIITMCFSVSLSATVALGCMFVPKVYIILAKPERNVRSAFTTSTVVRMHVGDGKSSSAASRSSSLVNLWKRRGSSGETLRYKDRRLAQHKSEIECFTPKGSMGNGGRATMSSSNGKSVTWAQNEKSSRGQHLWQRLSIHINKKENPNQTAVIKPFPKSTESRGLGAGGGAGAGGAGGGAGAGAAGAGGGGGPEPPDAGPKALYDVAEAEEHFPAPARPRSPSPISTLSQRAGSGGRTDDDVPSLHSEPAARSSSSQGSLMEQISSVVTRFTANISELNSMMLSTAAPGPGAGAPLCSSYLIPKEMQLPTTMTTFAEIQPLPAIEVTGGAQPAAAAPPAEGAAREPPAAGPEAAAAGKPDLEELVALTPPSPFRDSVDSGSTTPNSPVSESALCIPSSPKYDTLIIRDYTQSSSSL

Compound | inhibition at 10 µM
CC(C)(C)CC(C)(C)Nc1c(-c2ccc(C#Cc3ccccn3)cc2)nc2c(Cl)cc(C(F)(F)F)cn12 [Example 241, 8-chloro-2-(4-(pyridin-2-ylethynyl)phenyl)-6-(trifluoromethyl)-N-(2,4,4-trimethylpentan-2-yl)imidazo[1,2-a]pyridin-3-amine] | 65%
Fc1ccc(Nc2c(-c3ccc(C#Cc4ccccn4)cc3)nc3cnccn23)cc1 [Example 242, N-(4-fluorophenyl)-2-(4-(pyridin-2-ylethynyl)phenyl)imidazo[1,2-a]pyrazin-3-amine] | 91%
Cc1nc(C#Cc2ccccc2)ccc1-c1nc2cnccn2c1NC1CCCC1 [Example 243, N-cyclopentyl-2-(2-methyl-6-(phenylethynyl)pyridin-3-yl)imidazo[1,2-a]pyrazin-3-amine] | 80%
Cc1nc(C#Cc2ccccc2)ccc1-c1nc2cnccn2c1NC1CCCCC1 [Example 244, N-cyclohexyl-2-(2-methyl-6-(phenylethynyl)pyridin-3-yl)imidazo[1,2-a]pyrazin-3-amine] | 54%
C(#Cc1ccc(-c2nc3cnccn3c2NC2CCCC2)o1)c1ccccn1 [Example 245, N-cyclopentyl-2-(5-(pyridin-2-ylethynyl)furan-2-yl)imidazo[1,2-a]pyrazin-3-amine] | 92%
Cc1cc(Br)c2nc(-c3ccc(C#Cc4ccccn4)o3)c(NC3CCCC3)n2c1 [Example 246, 8-bromo-N-cyclopentyl-6-methyl-2-(5-(pyridin-2-ylethynyl)furan-2-yl)imidazo[1,2-a]pyridin-3-amine] | 74%
C(#Cc1ccc(-c2nc3cnccn3c2NC2CCCCC2)o1)c1ccccn1 [Example 247, N-cyclohexyl-2-(5-(pyridin-2-ylethynyl)furan-2-yl)imidazo[1,2-a]pyrazin-3-amine] | 83%
CC(C)(C)CC(C)(C)Nc1c(-c2ccc(C#Cc3ccccn3)o2)nc2cnccn12 [Example 248, 2-(5-(pyridin-2-ylethynyl)furan-2-yl)-N-(2,4,4-trimethylpentan-2-yl)imidazo[1,2-a]pyrazin-3-amine] | 68%
Cc1cccc(C#Cc2cccc(-c3nc4cnccn4c3NC3CCCC3)c2)n1 [Example 249, N-cyclopentyl-2-(3-((6-methylpyridin-2-yl)ethynyl)phenyl)imidazo[1,2-a]pyrazin-3-amine] | 80%
Cc1cc(Br)c2nc(-c3ccc(C#Cc4ccccn4)cc3)c(NC3CCCC3)n2c1 [Example 250, 8-bromo-N-cyclopentyl-6-methyl-2-(4-(pyridin-2-ylethynyl)phenyl)imidazo[1,2-a]pyridin-3-amine] | 69%
Cc1cccc(C#Cc2cccc(-c3nc4cnccn4c3NC3CCCCC3)c2)n1 [Example 251, N-cyclohexyl-2-(3-((6-methylpyridin-2-yl)ethynyl)phenyl)imidazo[1,2-a]pyrazin-3-amine] | 80%
Cc1cccc(C#Cc2cccc(-c3nc4cnccn4c3Nc3ccc(F)cc3)c2)n1 [Example 252, N-(4-fluorophenyl)-2-(3-((6-methylpyridin-2-yl)ethynyl)phenyl)imidazo[1,2-a]pyrazin-3-amine] | 86%
CC(C)(C)CC(C)(C)Nc1c(-c2ccc(C#Cc3ccccn3)s2)nc2ncccn12 [Example 253, 2-(5-(pyridin-2-ylethynyl)thiophen-2-yl)-N-(2,4,4-trimethylpentan-2-yl)imidazo[1,2-a]pyrimidin-3-amine] | 73%
C(#Cc1ccccn1)c1cccc(-c2nc3ncccn3c2NC2CCCCC2)c1 [Example 254, N-cyclohexyl-2-(3-(pyridin-2-ylethynyl)phenyl)imidazo[1,2-a]pyrimidin-3-amine] | 77%
CC(C)(C)CC(C)(C)Nc1c(-c2cccc(C#Cc3ccccn3)c2)nc2ncccn12 [Example 255, 2-(3-(pyridin-2-ylethynyl)phenyl)-N-(2,4,4-trimethylpentan-2-yl)imidazo[1,2-a]pyrimidin-3-amine] | 81%
CC(C)(C)CC(C)(C)Nc1c(-c2ccc(C#Cc3ccccc3)nc2)nc2ncccn12 [Example 256, 2-(6-(phenylethynyl)pyridin-3-yl)-N-(2,4,4-trimethylpentan-2-yl)imidazo[1,2-a]pyrimidin-3-amine] | 43%
C(#Cc1ccc(-c2nc3ncccn3c2NC2CCCC2)o1)c1ccccn1 [Example 257, N-cyclopentyl-2-(5-(pyridin-2-ylethynyl)furan-2-yl)imidazo[1,2-a]pyrimidin-3-amine] | 77%
CC(C)(C)Nc1c(-c2ccc(C#Cc3ccccn3)o2)nc2ncccn12 [Example 258, N-tert-butyl-2-(5-(pyridin-2-ylethynyl)furan-2-yl)imidazo[1,2-a]pyrimidin-3-amine] | 86%
Cc1cccc(C#Cc2cccc(-c3nc4ncccn4c3NC3CCCC3)c2)n1 [Example 259, N-cyclopentyl-2-(3-((6-methylpyridin-2-yl)ethynyl)phenyl)imidazo[1,2-a]pyrimidin-3-amine] | 82%

Compound | inhibition at 10 µM
C(#Cc1ccccn1)c1cccc(-c2nc3ccccn3c2NC2CCCC2)c1 [Example 260, N-cyclopentyl-2-(3-(pyridin-2-ylethynyl)phenyl)imidazo[1,2-a]pyridin-3-amine] | 64%
CC(C)(C)Nc1c(-c2cccc(C#Cc3ccccn3)c2)nc2ccccn12 [Example 261, N-tert-butyl-2-(3-(pyridin-2-ylethynyl)phenyl)imidazo[1,2-a]pyridin-3-amine] | 79%
CC(C)(C)CC(C)(C)Nc1c(-c2cccc(C#Cc3ccccn3)c2)nc2ccccn12 [Example 262, 2-(3-(pyridin-2-ylethynyl)phenyl)-N-(2,4,4-trimethylpentan-2-yl)imidazo[1,2-a]pyridin-3-amine] | 72%
Fc1ccc(Nc2c(-c3cccc(C#Cc4ccccn4)c3)nc3ccccn23)cc1 [Example 263, N-(4-fluorophenyl)-2-(3-(pyridin-2-ylethynyl)phenyl)imidazo[1,2-a]pyridin-3-amine] | 85%
CC(C)(C)Nc1c(-c2ccc(C#Cc3ccccn3)cc2)nc2ccccn12 [Example 264, N-tert-butyl-2-(4-(pyridin-2-ylethynyl)phenyl)imidazo[1,2-a]pyridin-3-amine] | 83%
Cc1nc(C#Cc2ccccc2)ccc1-c1nc2ccccn2c1NC1CCCC1 [Example 265, N-cyclopentyl-2-(2-methyl-6-(phenylethynyl)pyridin-3-yl)imidazo[1,2-a]pyridin-3-amine] | 68%
Cc1nc(C#Cc2ccccc2)ccc1-c1nc2ccccn2c1Nc1ccc(F)cc1 [Example 266, N-(4-fluorophenyl)-2-(2-methyl-6-(phenylethynyl)pyridin-3-yl)imidazo[1,2-a]pyridin-3-amine] | 63%
Cc1ccc2nc(-c3ccc(C#Cc4ccccn4)s3)c(NC3CCCC3)n2c1 [Example 267, N-cyclopentyl-6-methyl-2-(5-(pyridin-2-ylethynyl)thiophen-2-yl)imidazo[1,2-a]pyridin-3-amine] | 85%
Cc1ccc2nc(-c3ccc(C#Cc4ccccn4)s3)c(NC(C)(C)C)n2c1 [Example 268, N-tert-butyl-6-methyl-2-(5-(pyridin-2-ylethynyl)thiophen-2-yl)imidazo[1,2-a]pyridin-3-amine] | 75%
Cc1ccc2nc(-c3ccc(C#Cc4ccccn4)s3)c(NC3CCCCC3)n2c1 [Example 269, N-cyclohexyl-6-methyl-2-(5-(pyridin-2-ylethynyl)thiophen-2-yl)imidazo[1,2-a]pyridin-3-amine] | 94%
Cc1ccc2nc(-c3ccc(C#Cc4ccccn4)s3)c(NC(C)(C)CC(C)(C)C)n2c1 [Example 270, 6-methyl-2-(5-(pyridin-2-ylethynyl)thiophen-2-yl)-N-(2,4,4-trimethylpentan-2-yl)imidazo[1,2-a]pyridin-3-amine] | 93%
Cc1ccc2nc(-c3ccc(C#Cc4ccccc4)nc3C)c(NC(C)(C)CC(C)(C)C)n2c1 [Example 271, 6-methyl-2-(2-methyl-6-(phenylethynyl)pyridin-3-yl)-N-(2,4,4-trimethylpentan-2-yl)imidazo[1,2-a]pyridin-3-amine] | 31%
Cc1ccc2nc(-c3ccc(C#Cc4ccccn4)o3)c(NC3CCCC3)n2c1 [Example 272, N-cyclopentyl-6-methyl-2-(5-(pyridin-2-ylethynyl)furan-2-yl)imidazo[1,2-a]pyridin-3-amine] | 72%
Cc1ccc2nc(-c3cccc(C#Cc4cccc(C)n4)c3)c(NC3CCCCC3)n2c1 [Example 273, N-cyclohexyl-6-methyl-2-(3-((6-methylpyridin-2-yl)ethynyl)phenyl)imidazo[1,2-a]pyridin-3-amine] | 84%
Cc1ccn2c(NC3CCCCC3)c(-c3ccc(C#Cc4ccccn4)s3)nc2c1 [Example 274, N-cyclohexyl-7-methyl-2-(5-(pyridin-2-ylethynyl)thiophen-2-yl)imidazo[1,2-a]pyridin-3-amine] | 85%
Cc1ccn2c(NC(C)(C)CC(C)(C)C)c(-c3ccc(C#Cc4ccccn4)s3)nc2c1 [Example 275, 7-methyl-2-(5-(pyridin-2-ylethynyl)thiophen-2-yl)-N-(2,4,4-trimethylpentan-2-yl)imidazo[1,2-a]pyridin-3-amine] | 85%
Cc1ccn2c(NC(C)(C)C)c(-c3cccc(C#Cc4ccccn4)c3)nc2c1 [Example 276, N-tert-butyl-7-methyl-2-(3-(pyridin-2-ylethynyl)phenyl)imidazo[1,2-a]pyridin-3-amine] | 93%
Cc1ccn2c(Nc3ccc(F)cc3)c(-c3cccc(C#Cc4ccccn4)c3)nc2c1 [Example 277, N-(4-fluorophenyl)-7-methyl-2-(3-(pyridin-2-ylethynyl)phenyl)imidazo[1,2-a]pyridin-3-amine] | 95%
